From article PMC9538480, “Rutin bioconjugates as potential nutraceutical prodrugs: An in vitro and in ovo toxicological screening” (Frontiers in Pharmacology, 2022)
Values after ≈ are worked out from the molar mass of the structure shown.

Experiments:
[1] = system: H9c2(2-1) cells; format: cell-based, rat; conditions: 100 µM, 24 h, Hoechst 33342
Description: (§1) The potential toxicity of 100 μM RUT, OA, LA, RUT-O, and RUT-L at nuclear level was tested by applying the Hoechst 33342 staining assay protocol according to the manufacturer’s (Thermo Fisher Scientific, Inc., Waltham, MA, United States) recommendations. In brief, H9c2(2-1), HepaRG, and HaCaT cells were seeded in 12-well plates (10^5 cells/1.5 ml/well) and treated with the test compounds for 24 h. After the stimulation period, the media was removed, and the staining solution diluted 1:2000 in PBS was added (500 µl/well). The plates were incubated for 10 min at room temperature, protected from light. Finally, the staining solution was washed with PBS and the pictures were taken using Cytation 1 (BioTek Instruments Inc., Winooski, VT, United States) and analyzed by the means of Gen5™ Microplate Data Collection and Analysis Software (BioTek Instruments Inc., Winooski, VT, United States). Staurosporine (STP) 5 µM was selected as positive control for apoptosis.

[2] = system: H9c2(2-1), HaCaT, and HepaRG cells; format: cell-based; conditions: 100 µM, 24 h; for round cells floating in the culture medium: bright field; for impact on cells' adherence or confluency: compared to control cells
Description: To verify the impact of PCs (RUT, OA and LA) and REs (RUT-O and RUT-L) on the morphology and confluence of H9c2(2-1), HaCaT, and HepaRG cells, a microscopic examination was performed. The cells were observed under bright field illumination and photographed at the end of the 24 h treatment period using Cytation 1 (BioTek Instruments Inc., Winooski, VT, United States). The photographs were processed using the Gen5™ Microplate Data Collection and Analysis Software (BioTek Instruments Inc., Winooski, VT, United States).

[3] = system: H9c2(2-1) cells; assay: in vitro; format: cell-based, rat; conditions: H9c2(2-1), 24 h; for cell viability normalized to control: MTT
Description: (§2) To evaluate the in vitro effect of rutin esters (REs) on cells’ viability, the MTT technique was applied following a 24 h treatment of H9c2(2-1), HepaRG, and HaCaT cells with RUT-O and RUT-L (1, 10, 25, 50, and 100 µM). The parent compounds (PCs)—RUT, OA, and LA were also tested. DMSO was used as solvent for all test compounds (RUT, OA, LA, RUT-O, and RUT-L). The impact of DMSO at tested concentrations (1, 10, 25, 50, and 100 µM) was also assessed in vitro. At the end of the treatment, fresh media (100 µl) and the MTT reagent (10 µl) were added in each well, and the plates were incubated for 3 h at 37°C. The final steps were as follows: addition of the solubilization solution (100 µl/well), incubation of the plates at room temperature for 30 min, protected from light, and absorbance measurement at two wavelengths (570 and 630 nm) using Cytation 5 (BioTek Instruments Inc., Winooski, VT, United States). The results were expressed as percentage (%) of viable cells normalized to control cells (unstimulated cells).

[4] = system: HepaRG cells; assay: in vitro; format: cell-based, human; conditions: 100 µM
Description: as §2

[5] = system: reconstructed human epidermis 3D tissues—EpiDerm™ (EPI-212); conditions: for tissue viability compared to negative control (DPBS-treated inserts) / skin irritation classification (OECD Test Guideline 439, irritant if viability below 50%): 100 µM; for skin irritation classification (OECD Test Guideline 439, irritant if viability below 50%): EpiDerm
Source text: The reconstructed human epidermal model—EpiDerm™ (EPI-212, [MatTek Corporation protocol, 2021], Bratislava, Slovakia) (Lot no. 36155) is a multilayered differentiated human epidermis model made of normal human-derived epidermal keratinocytes, validated as test method for the OECD 439 (In vitro skin irritation: reconstructed human epidermis test methods) ([OECD, 2021]). The EpiDerm™ tissues (prepared as inserts) that served as model for the skin irritation test together with the specific culture media (assay medium—EPI-100-NMM), Dulbecco’s phosphate buffered saline (DPBS) (negative control), sodium dodecyl sulphate (SDS) 5% and the MTT kit were provided by the manufacturer (MatTek Corporation, Bratislava, Slovakia).
The in vitro skin irritation test (EPI-212-SIT) was performed according to the manufacturer’s recommendations and to the data from the literature [MatTek Corporation protocol—In vitro EpiDerm Skin Irritation Test (EPI-200-SIT); [Kandarova et al., 2018]]. […] The same protocol was performed for the positive (5% SDS in saline) and negative (sterile DPBS) controls. The tissue viability (%) was calculated according to the formulas specified in the literature ([Pinzaru et al., 2021]).

[6] = system: chorioallantoic membrane; assay: HET-CAM in ovo irritant potential; format: in vivo, Gallus domesticus; conditions: for vascular irritation signs (hemorrhage, lysis, coagulation) in words: 5 min after application; for tC = time of coagulation / tH = time of hemorrage / tL = time of lysis / Irritation score (IS): test compounds 100 µM, 5 min observation; for Irritation score (IS): 600 μl
Description: To perform a toxicological screening and to verify the irritant potential of the RUT-O and RUT-L were used chicken eggs (Gallus domesticus). Specifically, the eggs were prepared as follows: 1) after being washed and disinfected with 70% ethanol (v/v), the eggs were placed in an incubator in a horizontal posture; 2) on the fourth day of incubation, a small hole was made through which a volume of approximately 7–8 ml of albumen was extracted in order to facilitate the detachment of the chorioallantoic membrane from the inner shell of the egg; 3) on the fifth day of incubation, a window was cut in the upper part of the egg to allow the visualization of the blood vessels, which was then covered with adhesive tape and the eggs were placed in the incubator until the day of the beginning of the experiment. Using the Hen’s Egg Test—Chorioallantoic Membrane (HET-CAM) assay, the potential in ovo toxicity of the samples was evaluated. […] [Kis et al., 2022]). […] In order to observe any vascular effects, a stereomicroscope (Discovery 8 Stereomicroscope Zeiss, Göttingen, and Germany) was used, and images were taken with a Zeiss Axio CAM 105 color camera before and 5 min after the application of the samples. The same experimental protocol was applied for the parent compounds—RUT, OA, and LA.

[7] = system: HaCaT cells; format: cell-based, human; conditions: 100 µM, 24 h, Hoechst 33342
Description: as §1

[8] = system: HepaRG cells; format: cell-based, human; conditions: 100 µM, 24 h, Hoechst 33342
Description: as §1

[9] = system: HepaRG cells; assay: Wound healing (scratch) assay; format: cell-based, human; conditions: 25 µM, 24 h, control 44.31%
Description: (§3) The influence of RUT-O and RUT-L on the migration of cells was assessed by performing the wound healing (scratch) assay. In brief, the cells (10^5 cells/ml/well) were cultured in 24-well plates (Corning Costar), and an automatic scratch was made in each well by using the AutoScratchTM Wound Making Tool provided by BioTek® Instruments Inc. (Winooski, VT, United States). The cells were further treated with the flavonoid esters at the concentration of 25 μM for 24 h, and representative images of the wound area were taken at 0 and 24 h using Cytation 1 (BioTek® Instruments Inc., Winooski, VT, United States). The wound widths were measured using Gen5 TM Microplate Data Collection and Analysis Software (BioTek® Instruments Inc., Winooski, VT, United States). The effects on cell migration were quantified by calculating the wound healing rates (%) using a formula presented in our previous studies ([[…] et al., 2020]).

[10] = system: HaCaT cells; format: cell-based, human; conditions: 24 h; for effect on cell viability: 1-100 µM
Description: as §2

[11] = in vitro; format: cell-based, rat; conditions: rat
Description: as §2

[12] = in vitro; format: cell-based, human; conditions: human
Description: as §2

[13] = system: HUVEC endothelial cells; conditions: ref Bass et al., 2020; cited from earlier work
[14] = system: HaCaT cells; set-up: method as in Deepika et al., 2019; conditions: ref Deepika et al., 2019; cited from earlier work
[15] = system: H9c2(2-1) cells; assay: Wound healing (scratch) assay; format: cell-based, rat; conditions: 25 µM, 24 h, control 45.71%
Description: as §3

[16] = system: HaCaT cells; assay: Wound healing (scratch) assay; format: cell-based, human; conditions: 25 µM, 24 h
Description: as §3

[17] = lowest concentrations (1 and 10 µM)

SMILES | nuclear morphology changes [1] | round cells floating in the culture medium [2] | impact on cells' adherence or confluency [2] | tissue viability compared to negative control (DPBS-treated inserts) ([5]; EpiDerm inserts) | skin irritation classification (OECD Test Guideline 439, irritant if viability below 50%) [5] | vascular irritation signs (hemorrhage, lysis, coagulation) in words [6] | tC = time of coagulation [6] [s] | tH = time of hemorrage [6] [s] | tL = time of lysis [6] [s] | Irritation score (IS) [6] | nuclear morphology changes [7] | nuclear morphology changes [8] | wound healing rate [9] [%] | effect on cell viability [3, 17] | effect on cell viability [10] | also measured
CCCCCCCC/C=C\CCCCCCCC(=O)OC1C(C)OC(OCC2OC(Oc3c(-c4ccc(O)c(O)c4)oc4cc(O)cc(O)c4c3=O)C(O)C(O)C2O)C(O)C1O (stereo not drawn) [RUT-O, rutin oleate] | several apoptotic-like features | several round cells floating in the culture medium | no negative impact | over 100% | non-irritant | no significant irritant effects | 286 | 300 | 291 | 0.70 | nuclear fragmentation and formation of apoptotic bodies | chromatin condensation | 27.18 |  |  | cell viability normalized to control ([3]; 50 µM): 79.03%; cell viability normalized to control ([3]; 100 µM): 77.53%; cell viability normalized to control ([4]; HepaRG, 24 h, MTT): 83.17%; cell viability normalized to control ([10]; 100 µM, MTT): 78.32%
CCCCCCCC/C=C\CCCCCCCC(=O)O [OA, oleic acid] | no significant nuclear alterations | several round cells floating in the culture medium | no negative impact |  |  | No signs of vascular irritation |  |  |  |  | no significant nuclear alterations | no significant nuclear alterations |  |  |  | viability at 24 h, 50 µM [11]: 89.8%; viability at 24 h, 100 µM [11]: 82.9%; viability at 24 h, 50 µM [12]: 87.9%; viability at 24 h, 100 µM [12]: 76.4%; doses inducing cytotoxicity in HUVEC endothelial cells [13]: above 200 µM
C[C@@H]1O[C@@H](OC[C@H]2O[C@@H](Oc3c(-c4ccc(O)c(O)c4)oc4cc(O)cc(O)c4c3=O)[C@H](O)[C@@H](O)[C@@H]2O)[C@H](O)[C@H](O)[C@H]1O [RUT, Rutin] | no significant nuclear alterations |  | no negative impact |  |  | No signs of vascular irritation |  |  |  |  | no significant nuclear alterations | no significant nuclear alterations |  | stimulatory effect | not affected | IC50, inhibitory effect on HaCaT cells' growth [14]: 60 µg/mL (≈ 98.3 µM); wound healing rate [15]: 37.73%; effect on cell viability ([3]; highest concentrations (50 and 100 µM)): did not decrease cells viability; effect on wound regeneration [16]: no impact on wound regeneration
CCCCCCCCCCCCOS(=O)(=O)[O-].[Na+] [SDS 1%, sodium dodecyl sulphate] |  |  |  |  |  | the most obvious signs of vascular irritation | 15 | 22 | 20 | 19.78 |  |  |  |  |  | tissue viability ([5]; EpiDerm inserts, positive control 5% solution): 10%
CCCCC/C=C\C/C=C\CCCCCCCC(=O)O[C@@H]1[C@@H](O)[C@@H](O)[C@H](OC[C@H]2O[C@@H](Oc3c(-c4ccc(O)c(O)c4)oc4cc(O)cc(O)c4c3=O)[C@H](O)[C@@H](O)[C@@H]2O)O[C@H]1C [RUT-L, rutin linoleate] | No significant changes |  | no negative impact | over 100% | non-irritant | no significant irritant effects | 290 | 300 | 295 | 0.49 | No significant changes | No significant changes | 22.77 | stimulatory effect | stimulatory effect at all concentrations | cell viability normalized to control [4]: 101.25%
